We go through 5 molecules from patent US20110306040A1, “CPG RECEPTOR (CPG-R) AND METHODS RELATING THERETO” (priority 1999, published 2011).

Bounds are passed on as bounds.

Series [1] relates to NF-κB. The experiment in a line: κB-Luc assay in RAW 264.7 macrophages. The format is cell-based, mouse. To be noted: for κB-dependent luciferase expression: RAW 264.7 transfected with κB-Luc, IL-1 20 ng/ml, MPL 1 μg/ml, oligonucleotides 4 μM, normalized to untreated transfected cells. Here is the method:
RAW 264.7 cells were seeded into 6-well plates (Corning) at a density of 3×10^5 cells per well 24 hours prior to transfection. Plasmids used in transfection were pNF-κB-Luc (Clontech) and pCR3. V64-Met-Flag-MyD88lpr (kindly provided by Jurgen Tschopp; described in (Burns et al., J. Biol. Chem., 1998, 273, 12203-9). Total plasmid DNA concentration was normalized across all wells by addition of empty vector (pCMVKm2, Chiron). Cells were transfected with stated concentrations of DNA in Opti-MEM I (Gibco BRL) with […] of LipofectAMINE (Gibco BRL) per well according to manufacturer's instructions. Cells were incubated with the transfection mixture 3 hours at 37° C., then culture media was replaced and cells were allowed to recover overnight. The following day transfected cells were treated in culture media at 37° C., 5% CO2 with phosphorothioate oligonucleotides, MPL, LPS, or cytokines at indicated concentrations and times. Cells were washed once with cold phosphate buffered saline (PBS), and lysed with Reporter Lysis BufferJ (Promega). Luciferase activity in lysate supematants was determined using Microlite 2 plates (Dynex) and a ML 3000 Luminometer (Dynatech) all according to manufacture's instructions. For detection of FLAG-MyD88lpr expression, the insoluble pellet from transfected RAW 264.7 cells was resuspended in Triton lysis buffer and sonicated 10 minutes prior to addition of sample buffer and boiling. After separation and transfer to nitrocellulose, membranes were immunoblotted using FLAG M2 (Sigma) antibody.
To directly evaluate κB-dependent transcription induced by CpG oligonucleotide or MPL treatment, RAW 264.7 macrophage were transfected with an NF-κB-inducible reporter plasmid encoding luciferase under the control of multiple copies of the kappa light chain enhancer (κB-Luc) and the following day treated with adjuvants or cytokines. In particular, RAW 264.7 cells were transfected with a kB-driven luciferase reporter gene and treated 24 hours later with IL-1 (20 ng/ml), MPL (1 μg/ml), LPS (1 μg/ml) or a phosphorothioate CpG oligonucleotide (4 μM) for 6 hours. Luciferase activity in cell lysates was quantified by luminometry, and results were normalized to the luciferase signal in untreated transfected cells.
The effects of CpG oligonucleotide on κB-dependent luciferase expression were dose- and time-dependent (see FIGS. 1B and 1C). In regard to FIG. 1B, RAW 264.7 cells transiently transfected with a κB-luciferase reporter plasmid were treated 24 hours later with concentrations of phosphorothioate CpG oligonucleotide concentrations ranging from 0.25-8 μM, or a control oligonucleotide (4 μM) for 6 hours. Activation was detected at CpG oligonucleotide concentrations as low as 0.25 μM (FIG. 1B), but not at the lowest concentration tested (0.05 μM) (data not shown). Data shown in FIG. 1B are average luciferase activity in lysates from duplicate wells normalized to luciferase levels in lysates from untreated transfected wells on the same 6-well tissue culture plate. […] In regard to FIG. 1C, RAW 264.7 cells transiently transfected with a kB-Luc and treated 24 hours later with a CpG-containing oligonucleotide (4 μM; open circles), or LPS (1 μg/ml; filled circles). Results shown in FIG. 1C are average of duplicate wells normalized to untreated transfected wells.

Series [2] relates to CD86 expression on TLR4 mutant BMDDC. The experiment in a line: Flow cytometry of cell-surface CD86 on TLR4 mutant (C3H/HeJ) BMDDC. To be noted: overnight, oligonucleotide 5 μM, LPS 1 μg/ml, normalized to untreated. The format is cell-based, mouse. Here is the method: (§1) Bone marrow was harvested from female mice 6-12 weeks old of various genotypes (C57Bl/6, Balb/c; Charles River; or C3H/HeJ, Jackson Labs). Bone marrow cells were used fresh or were frozen in fetal calf serum (FCS; Summit) containing 10% dimethylsulfoxide and stored at −80° C. Bone-marrow macrophages (BMMO) were prepared as described in Current Protocols in Immunology, supra. Briefly, fresh or frozen bone marrow cells were cultured in RPMI, 10% heat inactivated (30 minutes, 56° C.) fetal calf serum (FCS), 2 mM L-glutamine, 100 μg/ml streptomycin, 100 units/ml penicillin, 50 μM β-mercaptoethanol and 100 U/ml recombinant macrophage colony stimulating factor (M-CSF; R&D Systems). After 24 hours, nonadherent cells were removed to a new dish, and culture continued for 7 days to produce a macrophage monolayer. […]
(§2) BMDDC were treated overnight with adjuvants as indicated, washed, resuspended in cold PBS/2% FBS containing FcBlock (0.25 μg/10^6 cells; Pharmingen), and FITC- and PE-conjugated antibodies (1 μg/10^6 cells) were added 5 minutes later. Cells were incubate with antibodies on ice 30 minutes, washed, and analyzed by flow cytometry on a FACScan (Becton-Dickenson). […] Changes in CD86 expression are assessed based on geometric mean fluorescence of CD86-FITC staining of the live CD11c cells treated with adjuvants normalize to the geometric mean CD86-FITC fluorescence of untreated BMDDC cultures. […]
(Flow cytometry measures light scatter and fluorescence of single cells or particles in a stream.)

The subject of series [3] is MyD88. Kind of series: κB-Luc assay in RAW 264.7 cells co-transfected with dominant-negative MyD88lpr. As to conditions: κB-Luc:MyD88lpr 10:1 or 1:1, oligonucleotides 4 μM, MPL 1 μg/ml, LPS 1 μg/ml. It counts as cell-based, mouse.
Series [4] concerns MAPK pathways, including ERK, JNK and p38. The experiment in a line: Immunoblotting for MAPK pathway phosphorylation (ERK1/2, JNK/c-jun, p38 substrate ATF2). The format is cell-based, mouse. As to conditions: BMMO, dendritic cells and RAW 264.7; within an hour of stimulation; oligonucleotides 1 μM; data not shown. Here is the method: as §1, with “monolayer. Nonadherent BMDDCs were produced by culture in the same medium supplemented with GM-CSF (200 U/ml; Preprotech) rather than M-CSF.” for “monolayer.”
Macrophages were differentiated from bone marrow cells of C57Bl/6 mice as described in Example 1 and then transferred to low serum medium lacking M-CSF for 4 hours. […] The positive result for ERK½ MAPK activation in RAW 264.7 cells and BMMO are in contrast to observations in another mouse macrophage cell line, J774, where ERK phosphorylation was not detected in CpG oligonucleotide-treated cells.
For orientation: A western blot detects proteins with antibodies after separation by electrophoresis.

Series [5] has as its system ERK. To be noted: J774 mouse macrophage cell line; cited from earlier work.
Series [6] relates to IκBα. Kind of series: Immunoblotting for phosphorylated and total IκBα in RAW 264.7 cells. It counts as cell-based, mouse. To be noted: 4 μM. Here is the method: Following stimulation, BMMO or RAW 264.7 cells were lysed in 1% Triton X-100, 50 mM Tris, 62.5 mM EDTA (pH 8.0) with CompleteJ protease inhibitor cocktail (Boehringer Mannheim) (Triton lysis buffer). Lysates were boiled in reducing sample buffer, separated on 10% polyacrylamide gels using the NuPAGEJ Bis-Tris electrophoresis system (Novex). Nitrocellulose membranes were probed with antibodies against IκB-α, phosphorylated-IκB-α, (New England BioLabs), or anti-IL-18 (Santa Cruz Biotechnology) according to manufacturer's instructions, and visualized with enhanced chemiluminescence (Amersham).
Lysates were also prepared from untreated RAW 264.7 cells or cells treated with a phosphorothioate CpG oligonucleotide (4 μM) for 5, 10, 20 and 60 minutes as well as a control oligonucleotide lacking CpG motifs for 60 minutes. The lysates were then resolved by electrophoresis, and immunoblotted with antisera to phosphorylated IκBα and total IκBα. […] This activation was detected at the level of IκBα phosphorylation within 10 minutes of CpG oligonucleotide addition, and degradation of IκBα was notable at 20 minutes.

Series [7] deals with MyD88. The experiment in a line: κB luciferase assay of RAW 264.7 cells transfected with MyD88 dominant-negative constructs. It counts as cell-based, mouse. To be noted: FIG. 3B. The text has this:
(§3) In another set of experiments, three MyD88 constructs lacking the ability to transduce signals were amplified by PCR, and placed under constitutive control of the CMV promoter (pCMV-FLAG vector, Sigma Aldrich). The first construct, MyD88lpr, contains a point mutation F56N in the death domain. The second construct, MyD88-ΔDD, lacks the death domain completely. The third construct, MyD88-THD, lacks both the death domain and the intermediate domain. The DNA was transfected into RAW 264.7 cells or murine embryonic NIH-3T3 cells using a cationic lipid reagent. A luciferase reporter plasmid was cotransfected. […] Cells were then stimulated with CpG oligonucleotides and several control cytokines. Luciferase expression was assayed on a luminometer to determine if the mutant MyD88 protein had affected CpG signaling. Restriction analysis and sequencing results confirmed the presence of the MyD88 constructs (data not shown). […] The MyD88 TIR domain alone was sufficient to block signaling.

The subject of series [8] is CD86 expression on BMDDC. Kind of series: Flow cytometry of cell-surface CD86 on wild-type (Balb/c) BMDDC. The format is cell-based, mouse. As to conditions: overnight, oligonucleotides 5 μM, LPS 1 μg/ml, normalized to untreated. Here is the method:
as §1, §2

Series [9] concerns MyD88. Kind of series: κB luciferase assay of NIH-3T3 cells transfected with MyD88 dominant-negative constructs. It counts as cell-based, murine. To be noted: FIG. 3A.
Source text: as §3

For the molecule monophosphoiyl lipid A [MPL], the κB-dependent luciferase expression result in [1] (6 hours, LPS 1 μg/ml) is recorded as “potent activators of NF-κB”. Further, in series [2], the “Cell-surface CD86 expression on live CD11c positive cells” value (shortened to “Cell-surface CD86 expression”) is listed as “no change in CD86 expression”. For the same molecule, in series [3], the “Effect of dominant-negative MyD88lpr expression on induced κB-dependent luciferase activity” value is on record as “inhibited”.

As to “tccaggacttctctcaggtt (TCCAGGACTTCTCTCAGGTT; DNA, all phosphorothioate, methylation of C not given here) [control oligonucleotide]”, the κB-dependent luciferase expression result in series [1] (6 hours, LPS 1 μg/ml) is reported as “did not induce an increase”. Besides, the “Phosphorylation of ERK, JNK and/or the JNK substrate c-jun, and of the p38 MAPK substrate ATF2” value in [4] is on record as “not”.

For “tccatgacgttcctgacgtt [CpG oligonucleotide]”, the ERK phosphorylation entry in series [5] is given as “not detected”. Further, the “κB-Luc activation at the lowest concentration tested” value in [1] (RAW 264.7, 0.05 μM, data not shown) is recorded as “not”. In addition, the “Activation of the reporter gene at 10 μM dose relative to 8 μM” value in [1] (RAW 264.7, 10 μM, data not shown) is given as “not further enhanced”. In series [1] (RAW 264.7, 6 hours, FIG. 1B), the “Concentration of maximal activation of the reporter gene” value came out at 8 µM and the “Lowest concentration at which κB-Luc activation was detected” value worked out at 0.25 µM. In addition, the “Increase of κB-dependent luciferase expression by 2 hours” value in series [1] (RAW 264.7, CpG oligonucleotide 4 μM, LPS 1 μg/ml, FIG. 1C) is “greater than two-fold increase”. In addition, the κB-dependent luciferase expression entry in [1] (6 hours, LPS 1 μg/ml) is “induced κB-dependent luciferase expression, to a level similar to that induced by MPL or LPS”. In [6], the “Time at which IκBα phosphorylation was detected after addition” value is not above 10 min and the “Time at which degradation of IκBα was notable” value came out at 20 min. Further, in series [4], the “Phosphorylation of ERK, JNK and/or the JNK substrate c-jun, and of the p38 MAPK substrate ATF2” value is reported as “observed in all three cell types”. Also, the “Effect of dominant negative MyD88 constructs (MyD88lpr, MyD88-ΔDD, MyD88-THD) on signaling to κB luciferase reporter” value in [7] was “specifically and selectively blocks signaling”. In addition, the “Cell-surface CD86 expression” value in series [8] was “increased cell-surface CD86 expression”. Moreover, in [2], the “Cell-surface CD86 expression” value is reported as “an increase in CD86 expression similar to that observed in the wild-type BMDDC”. Also, the “Effect of dominant-negative MyD88lpr expression on induced κB-dependent luciferase activity” value in series [3] is listed as “inhibited”. For the same molecule, the “Effect of dominant negative MyD88 constructs (MyD88lpr, MyD88-ΔDD, MyD88-THD) on signaling to κB luciferase reporter” value in series [9] was “specifically and selectively blocks signaling”.

B1: IL-18: recombinant mouse interleukin-18 (Biosource) (protein, UniProt P70380 36-192, looked up)
Interleukin-18: NFGRLHCTTAVIRNINDQVLFVDKRQPVFEDMTDIDQSASEPQTRLIIYMYKDSEVRGLAVTLSVKDSKMSTLSCKNKIISFEEMDPPENIDDIQSDLIFFQKRVPGHNKMEFESSLYEGHFLACQKEDDAFKLILKKKDENGDKSVMFTLTNLHQS
In the case of B1, the κB-dependent luciferase expression result in [1] (6 hours, LPS 1 μg/ml) is reported as “poor activator”.

B2: IL-1: recombinant mouse interleukin-1β (Endogen) (protein, UniProt P10749 118-269, looked up)
Interleukin-1 beta: VPIRQLHYRLRDEQQKSLVLSDPYELKALHLNGQNINQQVIFSMSFVQGEPSNDKIPVALGLKGKNLYLSCVMKDGTPTLQLESVDPKQYPKKKMEKRFVFNKIEVKSKVEFESAEFPNWYISTSQAEHKPVFLGNNSGQDIIDFTMESVSS
For B2, the κB-dependent luciferase expression entry in [1] (6 hours, LPS 1 μg/ml) was “poor activator”. Besides, the “Effect of dominant negative MyD88 constructs (MyD88lpr, MyD88-ΔDD, MyD88-THD) on signaling to κB luciferase reporter” value in series [9] was “did inhibit”.
